Like-named read-outs stand apart in the source and are kept apart here.
How the values were obtained:
[1] = test system: synovial fibroblast-like synoviocytes (FLS) from RA patients; experiment: p38 activation in FLS (western blot of P-p38); assay type: cell-based, human; conditions: 5 min stimulation
Protocol: Human fibroblast-like synoviocytes (FLS) were isolated from knee joints of rheumatoid arthritis patients obtained at the University Hospital Erlangen-Nuremberg[69]. All patients gave written informed consent, and their use for research was approved by the ethics committee of the University hospital Erlangen (ethic licenses 4013 and 4065). We confirm that all methods were performed in accordance with the relevant guidelines and regulations. Human RA FLS kept at 37 °C and 5% CO2 in a humidified incubator upon isolation. They were cultured in RPMI and DMEM at a ratio of 1:5, supplemented with 50 U/mL penicillin, 50 μg/mL streptomycin, 0.2% amphotericin and 2% fetal bovine serum. Cells between passages 3 to 8 were used.
For stimulation experiments, human FLS from RA patients were seeded at a concentration of 100,000 cells/mL in 500 µL culture medium in a 48-well plate one day prior to the experiment. Before stimulation of FLS, heme was pre-incubated with trIL-36α or trIL-36α protein mutants with substituted amino acids in the proposed heme-binding site in medium for 1 h at room temperature in the dark. […] Cell viability was analyzed using the AlamarBlue assay according to the manufacturer’s instruction (#741802, Invitrogen, Carlsbad, CA, USA), and absorbance was measured at 570 nm and 600 nm.

[2] = test system: synovial fibroblast-like synoviocytes (FLS) from RA patients; experiment: IL-6/IL-8 mRNA expression (qRT-PCR) in stimulated FLS; assay type: cell-based, human; conditions: 24 h; for IL-6 and IL-8 expression (mRNA) in FLS: IL-36α 5.8 nM, heme 0.15 and 1.5 µM (ratios 26:1 and 260:1)
Protocol: Human fibroblast-like synoviocytes (FLS) were isolated from knee joints of rheumatoid arthritis patients obtained at the University Hospital Erlangen-Nuremberg[69]. All patients gave written informed consent, and their use for research was approved by the ethics committee of the University hospital Erlangen (ethic licenses 4013 and 4065). We confirm that all methods were performed in accordance with the relevant guidelines and regulations. Human RA FLS kept at 37 °C and 5% CO2 in a humidified incubator upon isolation. They were cultured in RPMI and DMEM at a ratio of 1:5, supplemented with 50 U/mL penicillin, 50 μg/mL streptomycin, 0.2% amphotericin and 2% fetal bovine serum. Cells between passages 3 to 8 were used. For stimulation experiments, human FLS from RA patients were seeded at a concentration of 100,000 cells/mL in 500 μL culture medium in a 48-well plate one day prior to the experiment. […] Cells were then incubated for either 5 min (western blot analysis of phosphorylation) or 24 h (qPCR and ELISA). Sample separation was performed by a reducing […] (10% SDS polyacrylamide gel) and blotted to a nitrocellulose membrane by semi-dry transfer. […] Cell viability was analyzed using the AlamarBlue assay according to the manufacturer's instruction (#741802, Invitrogen, Carlsbad, CA, USA), and absorbance was measured at 570 nm and 600 nm. For performing quantitative real-time PCR (qRT-PCR), RNA was isolated from FLS with […], Germany), followed by first-strand cDNA synthesis using the MultiScribeTM MuLV reverse transcriptase (Applied Biosystems, Foster City, CA, USA), both according to manufacturer's instruction. Relative gene expression was assessed by qRT-PCR using the Applied Biosystems 7500 fast-real-time-PCR System (Applied Biosystems) with SYBR® Select Master Mix (ThermoFisher Scientific) as detection method, according to the manufacturer's manual. Samples and the housekeeping gene GAPDH as endogenous control were analyzed in duplicates. […]

IL-36α = target: T1, IL-36α (Homo sapiens, UniProt Q9UHA7); experiment: UV/Vis differential spectroscopy, protoporphyrin IX applied to IL-36α; assay type: binding
T1 construct: three additional amino acids (Gly-Ser-His) attached at the N-terminus of full-length IL-36α (161 amino acids); His6 tag with thrombin cleavage site (N, cleaved yes); made in house; host or cells: Escherichia coli BL21(DE3), pET-28a
T1 sequence (Q9UHA7 6-158): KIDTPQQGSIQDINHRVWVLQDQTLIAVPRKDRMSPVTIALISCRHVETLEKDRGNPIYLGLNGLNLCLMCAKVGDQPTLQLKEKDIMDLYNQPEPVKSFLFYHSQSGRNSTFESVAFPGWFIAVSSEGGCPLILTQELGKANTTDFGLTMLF
Protocol: (§1) A Multiskan GO microplate spectrophotometer (ThermoFisher Scientific, Dreieich, Germany) was used for UV/Vis measurements. Heme and peptide solutions were prepared in 100 mM Hepes buffer (pH 7.0). IL-36 cytokines (~5 µM), dissolved in 20 mM sodium phosphate buffer (pH 6.9), were incubated with heme (0.2 to 40 µM) in the dark at room temperature for 60 minutes before UV/Vis spectra were measured at 300 to 600 nm. Protein concentrations were corrected using the calculated molar absorption coefficient at 280 nm. Peptides 1–7 (20 µM) were incubated with heme for 30 minutes in the dark at room temperature.

[3] = Peroxidase-like activity of heme complexes; assay type: biochemical; conditions: protein:heme 1:1 and 1:2
Excerpt: A peroxidase-like activity of heme-peptide/protein complexes has been discussed to be critical due to cytotoxic ROS formation[4],[43]–[45]. We thus tested the peroxidase-like activity of IL-36α-heme-complexes in two different ratios (1:1 and 1:2, protein:heme) as well as of both heme-binding motifs (CP, YH) on the peptide level (Supplementary Fig. S5E).

[4] = UV/Vis differential spectroscopy of heme-incubated proteins and peptides; assay type: binding; conditions: peptide 20 µM, 30 min, 100 mM Hepes pH 7.0; read-out: KD for UV/Vis, IL-36α-derived peptides
Protocol: as §1

[5] = Fluorescence quenching of heme-incubated proteins; assay type: binding; conditions: λex 306 nm, λem 352 nm; protein 1 µM, heme 0.1-16 µM
Protocol: All measurements were performed on a fluorescence spectrophotometer FP-8300 (Jasco, Tokyo, Japan). BSA (1 µM) and lysozyme (1 µM) were dissolved in PBS buffer (pH 7.4) and IL-36α variants (1 µM) in 20 mM sodium phosphate buffer (pH 6.9), were each dissolved in and incubated for 60 minutes with varying heme concentrations (0.1–16 µM) in the dark. Parameters were set to excitation at 306 nm, emission at 352 nm, bandwidth 10 nm (extinction) and 20 nm (emission)[30].

[6] = Surface plasmon resonance (SPR) of heme binding to immobilized proteins, single-cycle kinetics
Protocol: SPR measurements were performed on a Biacore T200 instrument (GE Healthcare Europe GmbH, Freiburg, Germany) at 25 °C. The running buffer was 10 mM HEPES (pH 7.4), 150 mM NaCl, 0.05% Tween 20. The proteins BSA (VWR Life Science AMRESCO, Germany), lysozyme (AppliChem GmbH, Darmstadt, Germany), IL-36α (protein expression), trIL-36α (R&D Systems, Minneapolis, MN, USA), trIL-36β (isoform 2, R&D Systems, Minneapolis, MN, USA) and trIL-36γ (R&D Systems, Minneapolis, MN, USA) were covalently immobilized by amine coupling on a CM5 sensor chip (GE Healthcare). Briefly, lysozyme was diluted to a final concentration of 2.5 µg/mL in acetate buffer (pH 7.0), and BSA was diluted to 2.5 µg/mL in acetate buffer (pH 5.0). trIL-36α, trIL-36β, and trIL-36γ were diluted to 0.85 µg/mL in acetate buffer (pH 4.0). Subsequently, the proteins were separately injected at 10 µL/min on an EDC/NHS activated flow cell until immobilization levels of 1600 RU (lysozyme), 1050 RU (trIL-36α), 2900 RU (BSA), 937 RU (trIL-36β), and 320 RU (trIL-36γ) were achieved. An activated/deactivated flow cell was used for reference subtraction. […]

[7] = design: method as in PMID 23730736; conditions: UV shift to ~366 nm; read-out: Heme binding affinity of the 9mer CP-motif (UV/Vis); cited from earlier work

Molecule: C=CC1=C(C)C2=Cc3c(C=C)c(C)c4[n]3[Fe+][n]3c(c(C)c(CCC(=O)O)c3=CC3=NC(=C4)C(C)=C3CCC(=O)O)=CC1=N2 [heme]
- Activation of p38 in IL-36α-mediated signaling [1]: decreased activation of p38
- IL-6 and IL-8 expression (mRNA) in FLS [2]: did not have an effect

Molecule: C=CC1=C(C)c2cc3[nH]c(cc4nc(cc5[nH]c(cc1n2)c(C)c5CCC(=O)O)C(CCC(=O)O)=C4C)c(C)c3C=C [protoporphyrin IX (PPIX), protoporphyrin IX]
- Effect on UV/Vis differential spectrum of IL-36α (IL-36α): No effect

Molecule: FLFY108H109SQSG (FLFYHSQSG; UniProt Q9UHA7 105-113, looked up, fragment) [Peptide 1, IL-36α-derived 9mer wild-type YH motif peptide]
- Peroxidase-like activity relative to heme (100%) [3]: No significant increase
- Kd [4]: 4.48 ± 2.2 µM

Molecule: Lysozyme: negative control (non-binder) for heme binding [reference compound]
- Heme binding by fluorescence quenching (in words) [5]: non-binder
- Heme binding by SPR (in words) [6]: non-binder

Molecule: SEGGC136P137LIL (SEGGCPLIL; UniProt Q9UHA7 132-140, looked up, fragment) [9mer CP-motif]
- Kd [7]: 3.75 ± 0.77 µM

B1: IL-36α: full-length interleukin-36α, recombinantly expressed in E. coli (protein, UniProt Q9UHA7 1-158, looked up)
chain: MEKALKIDTPQQGSIQDINHRVWVLQDQTLIAVPRKDRMSPVTIALISCRHVETLEKDRGNPIYLGLNGLNLCLMCAKVGDQPTLQLKEKDIMDLYNQPEPVKSFLFYHSQSGRNSTFESVAFPGWFIAVSSEGGCPLILTQELGKANTTDFGLTMLF
modifications: full-length
notes: full-length interleukin-36α, recombinantly expressed in E. coli
- Peroxidase-like activity relative to heme (100%) [3]: No significant increase
- IL-6 and IL-8 expression (mRNA) in FLS [2]: induced IL-6 and IL-8 expression
- Heme binding by fluorescence quenching (in words) [5]: confirmed

B2: C136SP137A: IL-36α protein mutant C136S P137A (protein, UniProt Q9UHA7 6-158, looked up, variant C136S P137A)
Interleukin-36 alpha: KIDTPQQGSIQDINHRVWVLQDQTLIAVPRKDRMSPVTIALISCRHVETLEKDRGNPIYLGLNGLNLCLMCAKVGDQPTLQLKEKDIMDLYNQPEPVKSFLFYHSQSGRNSTFESVAFPGWFIAVSSEGGSALILTQELGKANTTDFGLTMLF
- IL-6 expression / biological activity of IL-36α mutants in FLS ([2]; 5.8 nM protein, compared to IL-36α): showed biological activity, even if reduced with respect to wild-type IL-36α

Reference: article PMC6858345, “Structural insights into heme binding to IL-36α proinflammatory cytokine” (Scientific Reports, 2019)
